Like-named read-outs stand apart in the source and are kept apart here.
Legend:
[1] = tested on: A549 cells; assay: Alkaline comet assay, A549 cells; format: cell-based, human; conditions: 2 h, 50 μM
Experimental: (§1) Selected iron(II) complexes were added to the suspension of the cells to give final concentrations of 1, 5, 10, 25 and 50 μM. HL-60 and A549 cells were incubated with the complexes for 2 h at 37 °C. The comet assay was performed under alkaline conditions according to the procedure of Tokarz et al.[45]. […] Next, the cells were lysed for 1 h at 4 °C in a buffer containing 2.5 M NaCl, 0.1 M EDTA, 10 mM Tris, 1% Triton X-100, pH 10. Following the lysis, the slides were placed in an electrophoresis unit. DNA was allowed to unwind for 20 min in the solution containing 300 mM NaOH and 1 mM EDTA, pH > 13. […] After separation, the slides were washed in water, drained, stained with 2 μg/ml DAPI and covered with cover slips. As a prevention from additional DNA damage, the procedure described above was conducted under limited light or in the dark. Each experiment included the positive control—cells incubated with H2O2 at 20 µM for 15 min on ice (data not shown).
(§2) The comets obtained after single cell gel electrophoresis were analysed in the following manner. […] Hundred images of singular comets were randomly selected from each sample and the mean value of DNA in comet tail was taken as an index of DNA damage (expressed in percent).

[2] = tested on: Genomic DNA isolated from A549 cell line; assay: DNA titration (UV-Vis absorption spectra); format: binding, human; conditions: 0.5, 5 and 50 µM, 15 min, room temp.
Experimental: Genomic DNA was isolated from A549 cell line using a commercially available kit (Extractme Genomic DNA Kit, Blirt, Gdansk, Poland) following the manufacturer’s protocol. The concentration and purity of DNA were measured by BioTek Synergy HT Microplate Reader (BioTek Instruments, Winooski, VT, USA). Genomic DNA in the amount of 20 µg was incubated with complex 2b for 15 min at room temp. at concentrations 0.5, 5, and 50 µM in a final volume of 2 ml. Next UV–Vis absorbance spectra (240–300 nm) was measured by UV–Vis JASCO V-630 spectrophotometer (JASCO, Japan).

[3] = tested on: HL-60 cells; assay: Alkaline comet assay, HL-60 cells; format: cell-based, human
Experimental: as §1, §2

[4] = tested on: PBM cells; assay: Cell viability resazurin assay, PBM cells; format: cell-based, human; conditions: for viability of PBM cells relative to control: ± SD
Description: Peripheral blood mononuclear (PBM) cells were isolated from a leukocyte-buffy coat collected from the blood of healthy, non-smoking donors at the Blood Bank in Lodz, Poland. The study protocol received approval from the Committee for Research on Human Subjects of the University of Lodz (17/KBBN-UŁ/III/2019). The initial step of isolation process involved mixing buffy coats with PBS in a 1:1 ratio. Subsequently, the mixture was centrifuged using a density gradient of Lymphosep (Cytogen, Zgierz, Poland) at 2200 RPM for 20 min, employing the lowest values for acceleration and deceleration. PBM cells were collected and washed three times by centrifugation with 1 × PBS. Following isolation, the cells were suspended in RPMI 1640 medium.
(§3) Firstly, resazurin salt powder was dissolved in sterile 1 × PBS. Cells were then seeded on the 96-well plates in the count of 1 × 10^4 in the case of HL-60 cells and of 5 × 10^4 for PBM cells and of 5 × 10^3 for A549 cells per well. A549 cells were seeded 24 h prior to treatment with the complexes to allow cell adherence to 96-well plate. Iron(II) complexes were added to wells to obtain final concentrations of 0.5, 1, 2.5, 5, 10, 25, 50, 100 and 250 μM. Subsequently, plates were incubated at 37 °C in 5% CO2 for 2 h and 24 h. After that 10 μl of resazurin salt was added to each well and plates again were incubated in 37 °C in 5% CO2 for 2 h. Finally, fluorescence was measured with microplate reader Synergy HT (Bio-Tek Instruments, USA) using an excitation wavelength of 530/25 and an emission wavelength of 590/35 nm. The effects of iron(II) complexes were calculated as the percentage of control fluorescence. IC50 (half maximal inhibitory concentration) values were calculated using a website algorithm (https://www.aatbio.com/tools/ic50-calculator). All assays were performed in octuplicate.

[5] = tested on: HL-60 cells; assay: Cell viability resazurin assay, HL-60 cells; format: cell-based, human; conditions: for viability of HL-60 cells relative to control: ± SD
Experimental: (§4) The A549 (human non-small cell lung cancer) cell line was obtained from the American Type Culture Collection (ATCC) and cultured in Dulbecco's Modified Eagle Medium (DMEM) with 10% fetal bovine serum (FBS), 2 mM L-Glutamine, 25 mM HEPES and penicillin/streptomycin solution (100 U/ml and 100 µg/ml, respectively). The HL-60 (human promyelocytic leukemia) cell line was also obtained from the American Type Culture Collection (ATCC) and cultured in Iscove’s Modified Dulbecco's Medium (IMDM) with 15% fetal bovine serum (FBS), 2 mM L-Glutamine, 25 mM HEPES and penicillin/streptomycin solution (100 U/ml and 100 µg/ml, respectively). Both cell lines were cultured in flasks at 37 °C in 5% CO2 and sub-cultured every 2–3 days to maintain exponential growth.
as §3

[6] = tested on: A549 cells; assay: Cell viability resazurin assay, A549 cells; format: cell-based, human; conditions: for viability of A549 cells relative to control: ± SD
Experimental: as §4, §3

[7] = tested on: doxorubicin-sensitive cells (Colo205); set-up: method as in PMID 37187089; conditions: cited from earlier work
[8] = tested on: doxorubicin-resistant (Colo320) cells; set-up: method as in PMID 37187089; conditions: cited from earlier work
[9] = tested on: HL-60 cells; set-up: method as in PMID 26486993; conditions: studied previously; read-out: IC50 HL-60 cells (ruthenium analogues); cited from earlier work
[10] = tested on: PBM cells; conditions: cited from earlier work; for IC50: studied previously, read-out: IC50 PBM cells (ruthenium analogues)

With `O=C1C=CC(=O)[N-]1.[C-]#[O+].[Fe+2].c1cc[cH-]c1.c1coc(P(c2ccco2)c2ccco2)c1` [2b, CpFe(CO)(P(Fu)3)(η^1-N-maleimidato)] the “percentage of DNA damage in tail (alkaline comet assay)” value [1] was “about 2%”, the “interaction with DNA (UV-Vis spectroscopic titration)” value [2] was “does not interact in an intercalative manner with DNA” and the “DNA damage in HL-60 cells (alkaline comet assay), in words” value ([3]; 2 h incubation, 1-50 μM tested) was “induced DNA damage”. For the same compound, the “DNA in tail (alkaline comet assay)” value ([3]; HL-60 cells, 2 h, 50 μM) was 6%, the “viability of PBM cells relative to control” value ([4]; 2 h incubation, 0.5 µM) was 98.07 ± 0.32% and the “viability of PBM cells relative to control” value ([4]; 2 h incubation, 1 µM) was 97.62 ± 0.66%. For the same compound, the “viability of PBM cells relative to control” value ([4]; 2 h incubation, 2.5 µM) was 96.06 ± 2.38%, the “viability of PBM cells relative to control” value ([4]; 2 h incubation, 5 µM) was 97 ± 1.29% and the “viability of PBM cells relative to control” value ([4]; 2 h incubation, 10 µM) was 96.53 ± 1.24%. The “viability of PBM cells relative to control” value ([4]; 2 h incubation, 25 µM) was 93.16 ± 4.6%, the “viability of PBM cells relative to control” value ([4]; 2 h incubation, 50 µM) was 79.21 ± 1.4% and the “viability of PBM cells relative to control” value ([4]; 2 h incubation, 100 µM) was 78.49 ± 1.24%. For the same compound, the “viability of PBM cells relative to control” value ([4]; 2 h incubation, 250 µM) was 75.23 ± 0.62%, the IC50 ([4]; 24 h incubation) was > 250 µM and the “viability of PBM cells relative to control” value ([4]; 24 h incubation, 0.5 µM) was 105.37 ± 7.62%. The “viability of PBM cells relative to control” value ([4]; 24 h incubation, 1 µM) was 101.81 ± 0.86%, the “viability of PBM cells relative to control” value ([4]; 24 h incubation, 2.5 µM) was 97.1 ± 1.83% and the “viability of PBM cells relative to control” value ([4]; 24 h incubation, 5 µM) was 94.2 ± 4.56%. For the same compound, the “viability of PBM cells relative to control” value ([4]; 24 h incubation, 10 µM) was 94.94 ± 2.09%, the “viability of PBM cells relative to control” value ([4]; 24 h incubation, 25 µM) was 88.93 ± 2.18% and the “viability of PBM cells relative to control” value ([4]; 24 h incubation, 50 µM) was 85.34 ± 2.58%. For the same compound, the “viability of PBM cells relative to control” value ([4]; 24 h incubation, 100 µM) was 83.38 ± 3.4%, the “viability of PBM cells relative to control” value ([4]; 24 h incubation, 250 µM) was 77.59 ± 2.06% and the “viability of HL-60 cells relative to control” value ([5]; 2 h incubation, 0.5 µM) was 106.51 ± 2.33%. For the same compound, the “viability of HL-60 cells relative to control” value ([5]; 2 h incubation, 1 µM) was 106.74 ± 1.35%, the “viability of HL-60 cells relative to control” value ([5]; 2 h incubation, 2.5 µM) was 103.04 ± 1.98% and the “viability of HL-60 cells relative to control” value ([5]; 2 h incubation, 5 µM) was 104.72 ± 2.62%. For the same compound, the “viability of HL-60 cells relative to control” value ([5]; 2 h incubation, 10 µM) was 104.03 ± 2.08%, the “viability of HL-60 cells relative to control” value ([5]; 2 h incubation, 25 µM) was 95.86 ± 2.66% and the “viability of HL-60 cells relative to control” value ([5]; 2 h incubation, 50 µM) was 90.45 ± 0.98%. The “viability of HL-60 cells relative to control” value ([5]; 2 h incubation, 100 µM) was 76.15 ± 3.1%, the “viability of HL-60 cells relative to control” value ([5]; 2 h incubation, 250 µM) was 21.23 ± 1.56% and the IC50 ([5]; 24 h incubation) was 10 µM. For the same compound, the “viability of HL-60 cells relative to control” value ([5]; 24 h incubation, 0.5 µM) was 107.57 ± 3.87%, the “viability of HL-60 cells relative to control” value ([5]; 24 h incubation, 1 µM) was 105.5 ± 3.13% and the “viability of HL-60 cells relative to control” value ([5]; 24 h incubation, 2.5 µM) was 97.63 ± 0.5%. For the same compound, the “viability of HL-60 cells relative to control” value ([5]; 24 h incubation, 5 µM) was 79.34 ± 1.21%, the “viability of HL-60 cells relative to control” value ([5]; 24 h incubation, 10 µM) was 51.6 ± 1.43% and the “viability of HL-60 cells relative to control” value ([5]; 24 h incubation, 25 µM) was 38.21 ± 0.22%. For the same compound, the “viability of HL-60 cells relative to control” value ([5]; 24 h incubation, 50 µM) was 35.8 ± 2.09%, the “viability of HL-60 cells relative to control” value ([5]; 24 h incubation, 100 µM) was 25.41 ± 1.92% and the “viability of HL-60 cells relative to control” value ([5]; 24 h incubation, 250 µM) was 17.52 ± 1.12%. For the same compound, the “viability of A549 cells relative to control” value ([6]; 2 h incubation, 0.5 µM) was 84.30 ± 11.24%, the “viability of A549 cells relative to control” value ([6]; 2 h incubation, 1 µM) was 80.74 ± 14% and the “viability of A549 cells relative to control” value ([6]; 2 h incubation, 2.5 µM) was 82.33 ± 9.73%. The “viability of A549 cells relative to control” value ([6]; 2 h incubation, 5 µM) was 83.32 ± 11.51%, the “viability of A549 cells relative to control” value ([6]; 2 h incubation, 10 µM) was 101.28 ± 15.65% and the “viability of A549 cells relative to control” value ([6]; 2 h incubation, 25 µM) was 114.98 ± 11.35%. The “viability of A549 cells relative to control” value ([6]; 2 h incubation, 50 µM) was 123.09 ± 7.89%, the “viability of A549 cells relative to control” value ([6]; 2 h incubation, 100 µM) was 84.95 ± 8.31% and the “viability of A549 cells relative to control” value ([6]; 2 h incubation, 250 µM) was 40.75 ± 4.24%. The IC50 ([6]; 24 h incubation) was 73.5 µM, the “viability of A549 cells relative to control” value ([6]; 24 h incubation, 0.5 µM) was 81.57 ± 14.09% and the “viability of A549 cells relative to control” value ([6]; 24 h incubation, 1 µM) was 74.40 ± 19.47%. The “viability of A549 cells relative to control” value ([6]; 24 h incubation, 2.5 µM) was 73.54 ± 23.46%, the “viability of A549 cells relative to control” value ([6]; 24 h incubation, 5 µM) was 61.87 ± 14.65% and the “viability of A549 cells relative to control” value ([6]; 24 h incubation, 10 µM) was 87.91 ± 9.79%. For the same compound, the “viability of A549 cells relative to control” value ([6]; 24 h incubation, 25 µM) was 110.30 ± 11.49%, the “viability of A549 cells relative to control” value ([6]; 24 h incubation, 50 µM) was 91.31 ± 16.37% and the “viability of A549 cells relative to control” value ([6]; 24 h incubation, 100 µM) was 13.33 ± 3.51%. The “viability of A549 cells relative to control” value ([6]; 24 h incubation, 250 µM) was 1.39 ± 0.12%.

For `O=S(=O)([O-])C(F)(F)F.[C-]#[O+].[Fe+2].c1cc[cH-]c1.c1ccc(Cn2ccnc2)cc1.c1ccc(P(c2ccccc2)c2ccccc2)cc1` [[CpFe(CO)(PPh3) (1-benzylimidazole)](CF3SO3)], the IC50 [7] is given as 1.26 ± 0.11 µM and the IC50 [8] is given as 2.21 ± 0.26 µM.

For `O=C1C=CC(=O)[N-]1.[C-]#[O+].[Ru+2].c1cc[cH-]c1.c1ccc(P(c2ccccc2)c2ccccc2)cc1` [ruthenium complex 2b, CpRu(CO)(PPh3) (η^1-N-maleimidato)], the IC50 [9] is listed as 35.6 µM, the “cytotoxicity toward PBM cells of ruthenium analogues, in words” value ([10]; listed as 2b-Ru) is listed as “cytotoxic” and the IC50 [10] is listed as 8.48 µM.

In the case of `CCOP(OCC)OCC.O=C1C=CC(=O)[N-]1.[C-]#[O+].[Ru+2].c1cc[cH-]c1` [ruthenium(II) complex 3a, CpRu(CO)(P(OEt)3)(η^1-N-maleimidato)], the IC50 [9] is given as 12.2 µM and the IC50 [10] is given as > 250 µM.

Reference: paper PMC10920834, “Synthesis, anticancer activity, and molecular docking of half-sandwich iron(II) cyclopentadienyl complexes with maleimide and phosphine or phosphite ligands” (Scientific Reports, 2024)
